In patent US20090274731A1, “PRODUCTION OF ENVELOPED PHARMACEUTICAL DOSAGE FORMS” (ABBOTT GMBH & CO. KG, priority 2006, published 2009):

Test: Relative solubility of paracetamol in the release media
Format: physicochemical
Conditions: in 20% ethanol compared with 0.01 M HCl; in words

- solubility: distinctly more soluble
SMILES: CC(=O)Nc1ccc(O)cc1 [paracetamol]
